# Results reported in patent US6472348B1, “Pyridone derivatives and herbicides” (Kumiai Chemical Industry Co., Ltd., priority 1996, dated 2002).
# Columns and labels:
# [1] = system: corn (Ze); experiment: Test Example 11: crop plant selectivity by upland field foliage treatment (corn), phytotoxicity; details: upland field foliage treatment, dose 1.6 g ai/10a, 14th day after treatment
# In short: (§1)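 Corn with pale smartweed, slender amaranth, common lambsquarters and China jute sown in sand-filled pots and grown 2 weeks in a greenhouse before foliage treatment. Herbicidal effect and crop phytotoxicity scored on day 14 after treatment against a rating standard.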
# [2] = system: common lambsquarters (Ch); experiment: Test Example 10: crop plant selectivity by upland field foliage treatment (soybean), herbicidal effects; format: in vivo; details: dose 1.6 g ai/10a, 14th day after treatment
# Method: (§2) (Test on Crop Plant Selectivity by Upland Field Foliage Treatment)
# (§3) In a plastic pot (surface area: 600 cm^2) filled with sand, soybean (Gl), pale smartweed (Po), slender amaranth (Am), common lambsquarters (Ch) and China jute (Ab) were sown and cultured in a green house for 2 weeks. […] The plants were then cultured in a green house, and the evaluation of the herbicidal effects and phytotoxicity was conducted on the 14th day after the treatment in accordance with the standards as identified in Table 47.
# [3] = system: pale smartweed (Po); experiment: as above; format: in vivo; details: dose 1.6 g ai/10a, 14th day after treatment
# Method: as §2, §3
# [4] = system: slender amaranth (Am); experiment: as above; format: in vivo; details: dose 1.6 g ai/10a, 14th day after treatment
# Method: as §2, §3
# [5] = system: China jute (Ab); experiment: as above; format: in vivo; details: dose 1.6 g ai/10a, 14th day after treatment
# Method: as §2, §3
# [6] = system: soybean (Gl); experiment: Test Example 10: crop plant selectivity by upland field foliage treatment (soybean), phytotoxicity; details: dose 1.6 g ai/10a, 14th day after treatment
# Method: as §2, §3
# [7] = system: common lambsquarters (Ch); experiment: Test Example 9: crop plant selectivity by upland field foliage treatment (wheat), herbicidal effects; format: in vivo; parameters: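 grade of growth control; 5 = at least 90%; 4 = 70 to 90%; 3 = 50 to 70%; 2 = 30 to 50%; 1 = 10 to 30%; 0 = under 10%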; details: dose 1.6 g ai/10a, 14th day after treatment
# In short: (§4)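 Wheat and weeds sown in sand-filled pots, grown 2 weeks in a greenhouse, then foliage-treated. Herbicidal effect and crop phytotoxicity were scored 14 days after treatment against a rating scale.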
# [8] = system: pale smartweed (Po); experiment: as above; format: in vivo; parameters: scale not given here; details: dose 1.6 g ai/10a, 14th day after treatment
# In short: as §4
# [9] = system: slender amaranth (Am); experiment: as above; format: in vivo; parameters: scale not given here; details: dose 1.6 g ai/10a, 14th day after treatment
# In short: as §4
# [10] = system: China jute (Ab); experiment: as above; format: in vivo; parameters: scale not given here; details: dose 1.6 g ai/10a, 14th day after treatment
# In short: as §4
# [11] = system: common lambsquarters (Ch); experiment: Test Example 11: crop plant selectivity by upland field foliage treatment (corn), herbicidal effects; format: in vivo; parameters: scale not given here; details: upland field foliage treatment (corn test), dose 1.6 g ai/10a, 14th day after treatment
# In short: as §1
# [12] = system: pale smartweed (Po); experiment: as above; format: in vivo; parameters: scale not given here; details: upland field foliage treatment (corn test), dose 1.6 g ai/10a, 14th day after treatment
# In short: as §1
# [13] = system: slender amaranth (Am); experiment: as above; format: in vivo; parameters: scale not given here; details: upland field foliage treatment (corn test), dose 1.6 g ai/10a, 14th day after treatment
# In short: as §1
# [14] = system: China jute (Ab); experiment: as above; format: in vivo; parameters: scale not given here; details: upland field foliage treatment (corn test), dose 1.6 g ai/10a, 14th day after treatment
# In short: as §1
# [15] = system: rice flatsedge (Ci); experiment: Test Example 3: herbicidal effects by upland field foliage treatment; format: in vivo; parameters: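 grade of growth control; 5 = at least 90%; 4 = 70 to 90%; 3 = 50 to 70%; 2 = 30 to 50%; 1 = 10 to 30%; 0 = under 10%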; details: 100 g of the active ingredient per 10 ares, evaluated on the 14th day after treatment
# In short: (§5)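 Greenhouse test, upland conditions: seeds sown in sand pots of 120 cm^2 area and overlaid with soil; 2 weeks growth; leaves treated; herbicidal injury graded on day 14 after treatment by fixed standards.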
# [16] = system: barnyardgrass (Ec); experiment: as above; format: in vivo; parameters: scale not given here; details: 100 g of the active ingredient per 10 ares, evaluated on the 14th day after treatment
# In short: as §5
# [17] = system: common lambsquarters (Ch); experiment: as above; format: in vivo; parameters: scale not given here; details: 100 g of the active ingredient per 10 ares, evaluated on the 14th day after treatment
# In short: as §5
# [18] = system: pale smartweed (Po); experiment: as above; format: in vivo; parameters: scale not given here; details: 100 g of the active ingredient per 10 ares, evaluated on the 14th day after treatment
# In short: as §5
# [19] = system: Diaitaria ciliaris (Di); experiment: as above; format: in vivo; parameters: scale not given here; details: 100 g of the active ingredient per 10 ares, evaluated on the 14th day after treatment
# In short: as §5
# [20] = system: slender amaranth (Am); experiment: as above; format: in vivo; parameters: scale not given here; details: 100 g of the active ingredient per 10 ares, evaluated on the 14th day after treatment
# In short: as §5
# [21] = system: rice flatsedge (Ci); experiment: Test Example 2: herbicidal effects by upland field soil treatment; format: in vivo; details: 100 g of the active ingredient per 10 ares, 21st day after the application, index 0-5 of Table 47;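 note: grade of growth control; 5 = at least 90%; 4 = 70 to 90%; 3 = 50 to 70%; 2 = 30 to 50%; 1 = 10 to 30%; 0 = under 10%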
# Text: (§6) (Test on Herbicidal Effects by Upland Field Soil Treatment)
# [22] = system: barnyardgrass (Ec); experiment: as above; format: in vivo; details: 100 g of the active ingredient per 10 ares, 21st day after the application, index 0-5 of Table 47
# Text: as §6
# [23] = system: common lambsquarters (Ch); experiment: as above; format: in vivo; details: 100 g of the active ingredient per 10 ares, 21st day after the application, index 0-5 of Table 47
# Text: as §6
# [24] = system: pale smartweed (Po); experiment: as above; format: in vivo; details: 100 g of the active ingredient per 10 ares, 21st day after the application, index 0-5 of Table 47
# Text: as §6
# [25] = system: Digitaria ciliaris (Di); experiment: as above; format: in vivo; details: 100 g of the active ingredient per 10 ares, 21st day after the application, index 0-5 of Table 47;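 note: grade of growth control; 5 = at least 90%; 4 = 70 to 90%; 3 = 50 to 70%; 2 = 30 to 50%; 1 = 10 to 30%; 0 = under 10%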
# Text: as §6
# [26] = system: slender amaranth (Am); experiment: as above; format: in vivo; details: 100 g of the active ingredient per 10 ares, 21st day after the application, index 0-5 of Table 47
# Text: as §6
# [27] = system: wheat (Tr); experiment: Test Example 9: crop plant selectivity by upland field foliage treatment (wheat), phytotoxicity; details: dose 1.6 g ai/10a, 14th day after treatment;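 note: grade of crop injury; 5 = at least 90%; 4 = 70 to 90%; 3 = 50 to 70%; 2 = 30 to 50%; 1 = 10 to 30%; 0 = under 10%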
# In short: as §4
# [28] = system: bulrush (Sc); experiment: Test Example 1: herbicidal effects by paddy field soil treatment; format: in vivo; details: 100 g of the active ingredient per 10 ares, 21st day after the application, index 0-5 of Table 47;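 note: grade of growth control; 5 = at least 90%; 4 = 70 to 90%; 3 = 50 to 70%; 2 = 30 to 50%; 1 = 10 to 30%; 0 = under 10%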
# In short: (§7)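 Herbicidal effect was scored against a graded standard 21 days after treatment. Seeds were sown in puddled, leveled paddy soil flooded to 3 cm depth, and the active ingredient was applied at 100 g per 10 ares before greenhouse culture.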
# [29] = system: barnyardgrass (Ec); experiment: as above; format: in vivo; details: 100 g of the active ingredient per 10 ares, 21st day after the application, index 0-5 of Table 47
# In short: as §7
# [30] = system: monochoria (Mo); experiment: as above; format: in vivo; details: 100 g of the active ingredient per 10 ares, 21st day after the application, index 0-5 of Table 47
# In short: as §7
Structure (SMILES),Phytotoxicity Ze [1],Herbicidal effects Ch [2],Herbicidal effects Po [3],Herbicidal effects Am [4],Herbicidal effects Ab [5],Phytotoxicity Gl [6],Herbicidal effects Ch [7],Herbicidal effects Po [8],Herbicidal effects Am [9],Herbicidal effects Ab [10],Herbicidal effects Ch [11],Herbicidal effects Po [12],Herbicidal effects Am [13],Herbicidal effects Ab [14],Herbicidal effects Ci [21],Herbicidal effects Ec [22],Herbicidal effects Ch [23],Herbicidal effects Po [24],Herbicidal effects Di [25],Herbicidal effects Am [26],other results
Cn1c(C(F)(F)F)ccc(-c2cc(OC3CCCC3)c(Cl)cc2F)c1=O [1-26],2,5,5,5,5,2,5,5,5,5,5,5,5,5,5,5,5,5,5,5,Herbicidal effects Ci [15]: 5; Herbicidal effects Ec [16]: 5; Herbicidal effects Ch [17]: 5; Herbicidal effects Po [18]: 5; Herbicidal effects Di [19]: 5; Herbicidal effects Am [20]: 5; Phytotoxicity Tr [27]: 2; Herbicidal effects Sc [28]: 5; Herbicidal effects Ec [29]: 5; Herbicidal effects Mo [30]: 5
C#CCSc1cc(-c2ccc(C(F)(F)F)n(C)c2=O)c(Cl)cc1Cl [1-52],2,5,5,5,5,2,5,5,5,5,5,5,5,5,5,5,5,5,5,5,Phytotoxicity Tr [27]: 1
CCC(=O)c1cc(-c2ccc(C(F)(F)F)n(C)c2=O)c(F)cc1Cl [1-69],2,5,5,5,5,2,5,5,5,5,5,5,5,5,5,5,5,5,5,5,Herbicidal effects Ci [15]: 5; Herbicidal effects Ec [16]: 5; Herbicidal effects Ch [17]: 5; Herbicidal effects Po [18]: 5; Herbicidal effects Di [19]: 5; Herbicidal effects Am [20]: 5; Phytotoxicity Tr [27]: 1; Herbicidal effects Sc [28]: 5; Herbicidal effects Ec [29]: 5; Herbicidal effects Mo [30]: 5
COCSc1cc(-c2ccc(C(F)(F)F)n(C)c2=O)c(Cl)cc1Cl [1-126],2,5,5,5,5,2,5,5,5,5,5,5,5,5,5,5,5,5,5,5,Herbicidal effects Ci [15]: 5; Herbicidal effects Ec [16]: 5; Herbicidal effects Ch [17]: 5; Herbicidal effects Po [18]: 5; Herbicidal effects Di [19]: 5; Herbicidal effects Am [20]: 5; Phytotoxicity Tr [27]: 2; Herbicidal effects Sc [28]: 5; Herbicidal effects Ec [29]: 5; Herbicidal effects Mo [30]: 5
